Measured values reported in the NIST ThermoML archive (doi:10.1016/j.jct.2012.03.013).
Numbers after ± are expanded uncertainties.

What was measured:
[1] = Liquid; for speed of sound: Pulse-echo method
[2] = molar heat capacity at constant pressure; conditions: Liquid, Acoustic Method

OCCCCO [1,4-butanediol]
[1]
Conditions | mass density [kg/m3]
313.15 K, 80000 kPa, Acoustic method | 1035.27 ± 0.15
313.15 K, 90000 kPa, Acoustic method | 1038.68 ± 0.15
313.15 K, 100000 kPa, Acoustic method | 1042 ± 0.16
318.15 K, 100 kPa, Acoustic method | 1000.67 ± 0.13
318.15 K, 101.33 kPa, Vibrating tube method | 1000.67 ± 0.13
318.15 K, 10000 kPa, Acoustic method | 1005.17 ± 0.13
318.15 K, 20000 kPa, Acoustic method | 1009.52 ± 0.13
318.15 K, 30000 kPa, Acoustic method | 1013.71 ± 0.13
318.15 K, 40000 kPa, Acoustic method | 1017.75 ± 0.13
318.15 K, 50000 kPa, Acoustic method | 1021.65 ± 0.14
318.15 K, 60000 kPa, Acoustic method | 1025.43 ± 0.14
318.15 K, 70000 kPa, Acoustic method | 1029.09 ± 0.14
318.15 K, 80000 kPa, Acoustic method | 1032.64 ± 0.15
318.15 K, 90000 kPa, Acoustic method | 1036.09 ± 0.15
318.15 K, 100000 kPa, Acoustic method | 1039.45 ± 0.16
323.15 K, 101.33 kPa, Vibrating tube method | 997.61 ± 0.13
328.15 K, 101.33 kPa, Vibrating tube method | 994.53 ± 0.13
333.15 K, 101.33 kPa, Vibrating tube method | 991.44 ± 0.13
338.15 K, 101.33 kPa, Vibrating tube method | 988.31 ± 0.13
343.14 K, 101.33 kPa, Vibrating tube method | 985.17 ± 0.13
348.15 K, 101.33 kPa, Vibrating tube method | 982.01 ± 0.13
353.15 K, 101.33 kPa, Vibrating tube method | 978.82 ± 0.13

Conditions | molar heat capacity at constant pressure [J/K/mol] | speed of sound [m/s]
[1], 318.15 K, 101.33 kPa | – | 1555.2 ± 1.3
[1], 318.17 K, 30390 kPa | – | 1649.8 ± 1.4
[1], 318.17 K, 45590 kPa | – | 1692.6 ± 1.4
[1], 318.17 K, 60790 kPa | – | 1733.4 ± 1.4
[1], 318.17 K, 75990 kPa | – | 1772 ± 1.5
[1], 318.18 K, 15200 kPa | – | 1603.3 ± 1.4
[1], 318.18 K, 91180 kPa | – | 1809.4 ± 1.5
[1], 318.18 K, 101320 kPa | – | 1832.7 ± 1.6
[1], 318.2 K, 100 kPa | – | 1555.3 ± 1.3
[2], 298.15 K, 10000 kPa | 202.7 ± 0.1 | –
[2], 298.15 K, 20000 kPa | 202.4 ± 0.1 | –
[2], 298.15 K, 30000 kPa | 202 ± 0.1 | –
[2], 298.15 K, 40000 kPa | 201.7 ± 0.1 | –
[2], 303.15 K, 10000 kPa | 205.5 ± 0.1 | –
[2], 303.15 K, 20000 kPa | 205.1 ± 0.1 | –
[2], 303.15 K, 30000 kPa | 204.7 ± 0.1 | –
[2], 303.15 K, 40000 kPa | 204.4 ± 0.1 | –
[2], 303.15 K, 50000 kPa | 204.1 ± 0.1 | –
[2], 303.15 K, 60000 kPa | 203.8 ± 0.1 | –
[2], 303.15 K, 70000 kPa | 203.5 ± 0.1 | –
[2], 303.15 K, 80000 kPa | 203.2 ± 0.1 | –
[2], 303.15 K, 90000 kPa | 202.9 ± 0.1 | –
[2], 308.15 K, 10000 kPa | 208.3 ± 0.1 | –
[2], 308.15 K, 20000 kPa | 207.9 ± 0.1 | –
[2], 308.15 K, 30000 kPa | 207.6 ± 0.1 | –
[2], 308.15 K, 40000 kPa | 207.2 ± 0.1 | –
[2], 308.15 K, 50000 kPa | 206.9 ± 0.1 | –
[2], 308.15 K, 60000 kPa | 206.6 ± 0.1 | –
[2], 308.15 K, 70000 kPa | 206.3 ± 0.1 | –
[2], 308.15 K, 80000 kPa | 206 ± 0.1 | –
[2], 308.15 K, 90000 kPa | 205.7 ± 0.1 | –
[2], 308.15 K, 100000 kPa | 205.4 ± 0.1 | –
[2], 313.15 K, 10000 kPa | 211.2 ± 0.1 | –
[2], 313.15 K, 20000 kPa | 210.8 ± 0.1 | –
[2], 313.15 K, 30000 kPa | 210.4 ± 0.1 | –
[2], 313.15 K, 40000 kPa | 210.1 ± 0.1 | –
[2], 313.15 K, 50000 kPa | 209.7 ± 0.1 | –
[2], 313.15 K, 60000 kPa | 209.4 ± 0.1 | –
[2], 313.15 K, 70000 kPa | 209.1 ± 0.1 | –
[2], 313.15 K, 80000 kPa | 208.8 ± 0.1 | –
[2], 313.15 K, 90000 kPa | 208.5 ± 0.1 | –
[2], 313.15 K, 100000 kPa | 208.2 ± 0.1 | –
[2], 318.15 K, 10000 kPa | 214.2 ± 0.1 | –
[2], 318.15 K, 20000 kPa | 213.8 ± 0.1 | –
[2], 318.15 K, 30000 kPa | 213.4 ± 0.1 | –
[2], 318.15 K, 40000 kPa | 213 ± 0.1 | –
[2], 318.15 K, 50000 kPa | 212.7 ± 0.1 | –
[2], 318.15 K, 60000 kPa | 212.3 ± 0.1 | –
[2], 318.15 K, 70000 kPa | 212 ± 0.1 | –
[2], 318.15 K, 80000 kPa | 211.7 ± 0.1 | –
[2], 318.15 K, 90000 kPa | 211.4 ± 0.1 | –
[2], 318.15 K, 100000 kPa | 211.1 ± 0.1 | –
